The term IC50 denotes the concentration that gives 50% inhibition.

The results in this text go back to patent publication US9567339B2, “Primary carboxamides as BTK inhibitors” (AbbVie Inc., priority 2013, dated 2017).

The structures appear in SMILES notation.

The target in one experiment is BTK, recombinant human catalytic domain (aa 393-659) (Homo sapiens (Human), UniProt Q06187). Briefly: In vitro BTK kinase activity measured by time-resolved fluorescence resonance energy transfer (trFRET). Particulars: read-out: Btk IC50. In kind it is biochemical.
BTK, recombinant human catalytic domain (aa 393-659), sequence (Q06187 393-659): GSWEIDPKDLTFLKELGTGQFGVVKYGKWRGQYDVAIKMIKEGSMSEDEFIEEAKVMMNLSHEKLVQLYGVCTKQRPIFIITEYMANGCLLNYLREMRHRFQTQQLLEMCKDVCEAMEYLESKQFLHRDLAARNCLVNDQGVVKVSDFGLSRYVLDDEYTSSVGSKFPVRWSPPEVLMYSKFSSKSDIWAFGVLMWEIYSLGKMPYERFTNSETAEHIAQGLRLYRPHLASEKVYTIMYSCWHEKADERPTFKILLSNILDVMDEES
In the case of `C=CC(=O)N[C@@H]1CCCN(c2ccc(C(N)=O)c3[nH]c(C4=CCN(S(C)(=O)=O)CC4)cc23)C1` [E.1.11*], the concentration for half-maximal inhibition (IC50) was less than 100 nM.

Take `C=CC(=O)N1C[C@H]2CN(c3ccc(C(N)=O)c4[nH]ccc34)C[C@H]21` [E.9.42]: the 50% inhibitory concentration (IC50) fell in the range of 100 to 1000 nM.

For `C=CC(=O)N1CC(N(C)c2ccc(C(N)=O)c3[nH]c(-c4cc5n(n4)CCOC5)cc23)C1` [E.9.4], the IC50 is less than 100 nM.

As to `C=CC(=O)N1CC[C@@H](c2ccc(C(N)=O)c3[nH]c(C)cc23)C1` [E.9.40*], the IC50 is 100 to 1000 nM.

Take `C=CC(=O)N1CC([C@@H](C)c2ncc(C(N)=O)c3[nH]ccc23)C1` [E.9.28]: the IC50 is less than 100 nM.

`C=C(C)C(=O)Nc1cccc(-c2ccc(C(N)=O)c3[nH]c(C4=CCN(S(C)(=O)=O)CC4)cc23)c1C` [D.7.5]: the IC50 is less than 100 nM.

Consider `C=CC(=O)N1CCC[C@H](c2ncc(C(N)=O)c3[nH]ccc23)C1` [E.9.33], for which the IC50 lay within 100 to 1000 nM.

Take `COc1ccc(C(=O)N[C@@H]2CCCN(c3ccc(C(N)=O)c4[nH]c(-c5cnn(C)c5)cc34)C2)cc1` [O.1.20*]: the IC50 was in the range of 100 to 1000 nM.

For `NC(=O)c1ccc(N2CCC[C@@H](n3cnc4ccc(F)cc4c3=O)C2)c2cc(-c3ccc(F)cc3)[nH]c12` [O.1.15*], the IC50 is 1000 to 10000 nM.

For `C=CC(=O)Nc1cc(-c2ccc(C(N)=O)c3[nH]ccc23)ccc1OCc1ccccc1` [E.1.12], the IC50 is 1000 to 10000 nM.

For the compound `Cc1nc(C(=O)Nc2cccc(-c3ccc(C(N)=O)c4[nH]c(C5=CCN(S(C)(=O)=O)CC5)cc34)c2C)cs1` [D.7.30], the half-inhibitory concentration (IC50) is less than 100 nM.

Turning to `C=CC(=O)Nc1ccccc1-c1ccc(C(N)=O)c2[nH]ccc12` [E.1.2], the IC50 was 1000 to 10000 nM.

As for `C=CC(=O)Nc1cccc(-c2ccc(C(N)=O)c3[nH]ccc23)c1F` [E.1.33], the IC50 was less than 100 nM.

As to `Cc1c(NC(=O)/C=C/CN2CCOCC2)cccc1-c1ccc(C(N)=O)c2[nH]ccc12` [J.1.5], the IC50 lay within 1000 to 10000 nM.

`C=CC(=O)Nc1cc(-c2ccc(C(N)=O)c3[nH]ccc23)ccc1C` [E.1.25]: the IC50 is less than 100 nM.

In the case of `C=CC(=O)N1CCC[C@@H](c2ccc(C(N)=O)c3[nH]c(C)cc23)C1` [E.9.7], the IC50 was less than 100 nM.

As for `Cc1c(NC2COC2)cccc1-c1ccc(C(N)=O)c2[nH]ccc12` [O.1.2], the IC50 is 1000 to 10000 nM.

Turning to `C=CC(=O)N1C[C@@H](CO)C[C@@H](c2ccc(C(N)=O)c3[nH]ccc23)C1` [E.9.45], the IC50 lay in the range of 1000 to 10000 nM.

`CCOC(=O)/C=C/C(=O)Nc1cccc(-c2ccc(C(N)=O)c3[nH]c(C4=CCN(S(C)(=O)=O)CC4)cc23)c1C` [D.7.20]: the IC50 was less than 100 nM.

In the case of `C=CC(=O)Nc1cc(-c2ccc(C(N)=O)c3[nH]ccc23)ccn1` [E.1.3], the IC50 is less than 100 nM.

In the case of `Cc1c(NC(=O)/C=C/CN(C)C)cccc1-c1cnc(C(N)=O)c2[nH]ccc12` [J.2.1], the IC50 was in the range of 100 to 1000 nM.

`CC(=O)C(=O)Nc1cccc(-c2ccc(C(N)=O)c3[nH]ccc23)c1` [E.7.1]: the IC50 is 100 to 1000 nM.

On to `Cc1c(NC(=O)C2CCOCC2)cccc1-c1ccc(C(N)=O)c2[nH]c(C3=CCN(S(C)(=O)=O)CC3)cc12` [D.7.33], for which the IC50 was less than 100 nM.

With `Cn1cc(-c2cc3c(N4CCC[C@@H](NC(=O)c5ccc(C(C)(C)C)cc5)C4)ccc(C(N)=O)c3[nH]2)cn1` [O.1.19*], the IC50 was less than 100 nM.

Regarding `CCC(Cl)C(=O)Nc1cccc(-c2ccc(C(N)=O)c3[nH]c(C4=CCN(S(C)(=O)=O)CC4)cc23)c1C` (stereo not drawn) [D.7.26], the IC50 is less than 100 nM.

`Cc1c(NC(=O)/C=C\C(N)=O)cccc1-c1ccc(C(N)=O)c2[nH]c(C3=CCN(S(C)(=O)=O)CC3)cc12` [D.7.10]: the IC50 was less than 100 nM.

With `CCC(=O)NCc1ccccc1-c1cc2c(-c3cccc(NC(=O)c4nccs4)c3C)ccc(C(N)=O)c2[nH]1` [E.4.2], the IC50 lay within 1000 to 10000 nM.

For the compound `Cc1c(NC(=O)C2CCN(C)CC2)cccc1-c1ccc(C(N)=O)c2[nH]c(C3=CCN(S(C)(=O)=O)CC3)cc12` [D.7.36], the IC50 was less than 100 nM.

As to `C=C(CNC)C(=O)Nc1cccc(-c2ccc(C(N)=O)c3[nH]ccc23)c1` [G.1.3], the IC50 was less than 100 nM.

As for `Cc1c(NC(=O)CC#N)cccc1-c1ccc(C(N)=O)c2[nH]c(C3=CCN(S(C)(=O)=O)CC3)cc12` [D.7.4], the IC50 was less than 100 nM.

With `C=CC(=O)N1C[C@H](CO)C[C@H](c2ccc(C(N)=O)c3[nH]ccc23)C1` [E.9.47], the IC50 lay in the range of 100 to 1000 nM.

The experiment is the same for the next values; noted with them: trFRET, 0.001 mM ATP, biotin-TYR1 peptide substrate; read-out: Btk IC50.
For the compound `C#CC(=O)NCc1ccccc1-c1cc2c(-c3cccc(NC(=O)c4nccs4)c3C)ccc(C(N)=O)c2[nH]1` [D.1.11], the IC50 was 100 to 1000 nM.

In the case of `Cc1c(NC(=O)/C=C/c2cnn(C)c2)cccc1-c1ccc(C(N)=O)c2[nH]ccc12` [D.8.2], the IC50 was 100 to 1000 nM.

Regarding `Cc1c(NC(=O)c2cc3c(s2)CCCC3)cccc1-c1ccc(C(N)=O)c2[nH]c(-c3ccc(F)cc3)cc12` [A.9.7], the concentration for half-maximal inhibition (IC50) lay in the range of 1000 to 10000 nM.

As for `C=CC(=O)N1CC([C@@H](C)c2ccc(C(N)=O)c3[nH]ccc23)C1` [28 (R), (R)-4-(1-(1-acryloylazetidin-3-yl)ethyl)-1H-indole-7-carboxamide], the half-maximal inhibitory concentration (IC50) was less than 100 nM.

As for `Cc1c(NC(=O)/C=C/c2nccs2)cccc1-c1ccc(C(N)=O)c2[nH]ccc12` [D.8.5], the IC50 is 100 to 1000 nM.

Turning to `C=CC(=O)Nc1c[nH]c2c(C(N)=O)ccc(-c3cccc(NC(=O)c4nccs4)c3C)c12` [D.3.2], the 50% inhibitory concentration (IC50) fell in the range of 1000 to 10000 nM.

For `NC(=O)c1ccc(-c2ccncc2)c2cc(-c3ccc(F)cc3)[nH]c12` [A.9.4], the IC50 was in the range of 100 to 1000 nM.

In the case of `Cc1c(-c2ccc(C(N)=O)c3[nH]c(C4=CCN(S(C)(=O)=O)CC4)cc23)cccc1-n1cnc2ccc(F)cc2c1=O` [A.4.19], the half-maximal inhibitory concentration (IC50) is less than 100 nM.

For `NC(=O)c1ccc(-c2ccnc(N)c2)c2cc[nH]c12` [A.5.3, 4-(2-aminopyridin-4-yl)-1H-indole-7-carboxamide], the IC50 lay in the range of 1000 to 10000 nM.

In the case of `C=CC(=O)Nc1cccc(-c2cnc(C(N)=O)c3[nH]ccc23)c1C` [Example 17, 4-(3-Acrylamido-2-methylphenyl)-1H-pyrrolo[2,3-c]pyridine-7-carboxamide], the IC50 is less than 100 nM.

Consider `C=CC(=O)Nc1cccc(-c2ccc(C(N)=O)c3[nH]c(-c4ccc(C#N)cc4)cc23)c1C` [A.1.42], for which the IC50 was less than 100 nM.

For the compound `NC(=O)c1ccc(-c2cccnc2)c2cc(-c3ccc(F)cc3)[nH]c12` [A.9.2], the half-maximal inhibitory concentration (IC50) is less than 100 nM.

As for `Cc1c(N)cccc1-c1ccc(C(N)=O)c2[nH]c(C3=CCC(F)(F)CC3)cc12` [Example 21, 4-(3-Amino-2-methylphenyl)-2-(4,4-difluorocyclohex-1-enyl)-1H-indole-7-carboxamide], the half-inhibitory concentration (IC50) is less than 100 nM.

For `CC(=O)c1ccc(-c2ccc(C(N)=O)c3[nH]c(-c4ccc(C)cc4)cc23)s1` [A.8.5], the IC50 lay within 100 to 1000 nM.

Consider `C=CC(=O)Nc1cccc(-c2ccc(C(N)=O)c3[nH]c(-c4cccc(N(C)C)c4)cc23)c1C` [A.1.27], for which the IC50 is less than 100 nM.

As for `NC(=O)c1ccc(I)c2cc(-c3cccnc3)[nH]c12` [F.1, 4-iodo-2-(pyridin-3-yl)-1H-indole-7-carboxamide], the IC50 was 100 to 1000 nM.

Turning to `NC(=O)c1ccc(-c2cncnc2)c2cc(-c3ccc(F)cc3)[nH]c12` [A.9.1], the IC50 lay in the range of 100 to 1000 nM.

As to `C=CC(=O)Nc1cccc(-c2ccc(C(N)=O)c3[nH]c(-c4cccc(C(N)=O)c4)cc23)c1C` [A.1.25], the IC50 was less than 100 nM.

Consider `C=C(CN(C)C)C(=O)Nc1cccc(-c2ccc(C(N)=O)c3[nH]ccc23)c1` [D.6.1], for which the IC50 is less than 100 nM.

As for `CNc1cccc(-c2ccc(C(N)=O)c3[nH]ccc23)c1` [A.6.2], the IC50 is 1000 to 10000 nM.

Regarding `Cc1c(NC(=O)c2cc3c(s2)CCCC3)cccc1-c1ccc(C(N)=O)c2[nH]c(-c3cccnc3)cc12` [A.7.3], the IC50 is less than 100 nM.

With `Cc1c(-c2ccc(C(N)=O)c3[nH]c(-c4cncnc4)cc23)cccc1-n1cnc2ccccc2c1=O` [A.13.1], the IC50 was 100 to 1000 nM.

As to `NC(=O)c1ccc(-c2ccn[nH]2)c2cc(-c3ccc(F)cc3)[nH]c12` [A.9.5], the IC50 lay within 100 to 1000 nM.

For the compound `Cc1ccc2c(c1)C(=O)N(c1cccc(-c3ccc(C(N)=O)c4[nH]c(-c5cccnc5)cc34)c1C)C2` [A.7.5], the IC50 is less than 100 nM.

Take `C=CC(=O)Nc1cccc(-c2ccc(C(N)=O)c3[nH]c(-c4cnn(CCN5CCOCC5)c4)cc23)c1C` [A.1.8]: the IC50 is less than 100 nM.

`C=CC(=O)Nc1cccc(-c2ccc(C(N)=O)c3[nH]c(-c4cc(S(=O)(=O)N5CCCC5)ccc4C)cc23)c1C` [A.1.28]: the IC50 lay in the range of 100 to 1000 nM.

`CC(=O)Nc1cccc(-c2ccc(C(N)=O)c3[nH]ccc23)c1C` [D.8.12]: the IC50 lay in the range of 1000 to 10000 nM.

As to `C=CC(=O)Nc1cccc(-c2ccc(C(N)=O)c3[nH]c(-c4ccc(C(=O)OC)cc4)cc23)c1C` [A.1.20], the IC50 is less than 100 nM.

Consider `CCNC(=O)/C=C/C(=O)Nc1cccc(-c2ccc(C(N)=O)c3[nH]ccc23)c1` [D.4.3], for which the IC50 was 1000 to 10000 nM.

As for `C=CC(=O)Nc1cccc(-c2ccc(C(N)=O)c3[nH]c(C4=CCC(F)(F)CC4)cc23)c1C` [E.1, 4-(3-Acrylamido-2-methylphenyl)-2-(4,4-difluorocyclohex-1-en-1-yl)-1H-indole-7-carboxamide], the IC50 was less than 100 nM.

As to `C=CC(=O)Nc1cccc(-c2ccc(C(N)=O)c3[nH]c(-c4cnn(CC(C)C)c4)cc23)c1C` [A.1.7], the IC50 was less than 100 nM.

As for `Cc1c(NC(=O)/C=C/C2CC2)cccc1-c1ccc(C(N)=O)c2[nH]ccc12` [D.8.6], the IC50 lay in the range of 100 to 1000 nM.

Regarding `N#CCNS(=O)(=O)c1cccc(-c2ccc(C(N)=O)c3[nH]ccc23)c1` [A.6.1], the IC50 was in the range of 1000 to 10000 nM.

Regarding `Cc1c(NC(=O)c2nccs2)cccc1-c1ccc(C(N)=O)c2[nH]c(-c3ccc(=O)n(C)c3)cc12` [A.2.1], the IC50 was less than 100 nM.

In the case of `Cc1c(NC(=O)c2nccs2)cccc1-c1ccc(C(N)=O)c2[nH]cc(NC(=O)COc3ccc(F)cc3)c12` [D.3.6], the IC50 fell in the range of 1000 to 10000 nM.

Consider `C=CC(=O)Nc1ccccc1-c1ccc(C(N)=O)c2[nH]c(C3=CCN(S(C)(=O)=O)CC3)cc12` [A.4.3], for which the IC50 was less than 100 nM.

As to `C/C=C/C(=O)NCc1ccccc1-c1cc2c(-c3cccc(NC(=O)c4nccs4)c3C)ccc(C(N)=O)c2[nH]1` [D.1.9], the IC50 was in the range of 1000 to 10000 nM.

As for `Cc1ccc(-c2cc3c(-c4cccnc4)ccc(C(N)=O)c3[nH]2)cc1` [A.8.3], the IC50 lay in the range of 100 to 1000 nM.
